Earlier results, collected in the PKSmart pharmacokinetics tables (Seal et al. 2025).

Assay: Lombardo, Berellini, Obach 2018, Drug Metab Dispos 46:1466, doi 10.1124/dmd.118.082966
Settings: human; for MRT / Vd / clearance / half-life: in vivo, iv; for fraction unbound: plasma

| Structure (SMILES) | MRT [h] | Vd [L/kg] | clearance [mL/min/kg] | half-life [min] | fraction unbound |
| --- | --- | --- | --- | --- | --- |
| CC[C@@]1(O)CN2CC[C@H]1C[C@@H]2[C@@H](O)c1ccnc2ccc(OC)cc12 | 9.4 | 6.8 | 12 | 402 | 0.47 |
| CC(C)=CCC[C@](C)(O[C@@H]1O[C@H](CO)[C@@H](O)[C@H](O)[C@H]1O)[C@H]1CC[C@]2(C)[C@@H]1[C@H](O)C[C@@H]1[C@@]3(C)CC[C@H](O[C@@H]4O[C@H](CO)[C@@H](O)[C@H](O)[C@H]4O[C@@H]4O[C@H](CO)[C@@H](O)[C@H](O)[C@H]4O)C(C)(C)[C@@H]3CC[C@]12C | 20.2 | 0.11 | 0.09 | 1110 |  |
| CCCCCCCCOCCOC(=O)CN(CC(=O)O)c1ccccc1OCCOc1ccccc1N(CC(=O)O)CC(=O)OCCOCCCCCCCC | 1.3 | 1.1 | 14 | 210 |  |
| COc1ccnc(C[S+](O)c2nc3cc(-n4cccc4)ccc3[n-]2)c1C (stereo not drawn) | 4.32 | 0.19 | 0.73 | 215 |  |
| C#Cc1cccc(Nc2ncnc3cc(OC)c(OCCCCCCC(O)=NO)cc23)c1 | 0.78 | 0.56 | 12 | 301 |  |
| CSCCC(N)C(=O)NC(CCC(=O)O)C(=O)NC(Cc1cnc[nH]1)C(=O)NC(Cc1ccccc1)C(=O)NC(CCCN=C(N)N)C(=O)NC(Cc1c[nH]c2ccccc12)C(=O)NCC(=O)O (stereo not drawn) | 0.01 | 0.73 | 871 | 3.6 |  |
| CCOc1ccc(CC2=NCCc3cc(OCC)c(OCC)cc32)cc1OCC | 9 | 1.9 | 3.5 | 558 |  |
| CC(CN(C)C)CN1c2ccccc2CCc2ccccc21 (stereo not drawn) | 17 | 16 | 16 | 1380 | 0.051 |
| CO[C@]1(NC(=O)CSC(F)F)C(=O)N2C(C(=O)O)=C(CSc3nnnn3CCO)CO[C@@H]21 | 0.77 | 0.19 |  | 36 | 0.64 |
| CS(=O)(=O)c1cc(F)cc2c3c(n(Cc4ccc(Cl)cc4)c12)[C@@H](CC(=O)O)CC3 | 13.7 | 1 | 1.21 | 708 |  |
| CC=CC1=C(C(=O)O)N2C(=O)C(NC(=O)C(N)c3ccc(O)cc3)[C@H]2SC1 (stereo partly drawn) | 1.2 | 0.21 | 2.9 | 72 |  |
| CNCc1ccc(-c2[nH]c3cc(F)cc4c3c2CCNC4=O)cc1 | 12.7 | 3.28 | 4.31 | 996 |  |
| Cc1ccc(Nc2nccc(N(C)c3ccc4c(C)n(C)nc4c3)n2)cc1S(N)(=O)=O | 44.4 | 0.16 | 0.06 |  | 0.01 |
| C#CCN(C)C(C)Cc1ccccc1 (stereo not drawn) | 1.6 | 1.9 | 20 | 78 |  |
| CN(C)c1cc(CNCC(C)(C)C)c(O)c2c1C[C@H]1C[C@H]3[C@H](N(C)C)C(O)=C(C(N)=O)C(=O)[C@@]3(O)C(O)=C1C2=O | 19.2 | 2.7 | 2.34 | 900 |  |
| COc1ccc(-c2nc3cc(C4=NNC(=O)CC4C)ccc3[nH]2)cc1 (stereo not drawn) | 2.2 | 2 |  | 108 | 0.024 |
| CCCCc1oc2ccc(NS(C)(=O)=O)cc2c1C(=O)c1ccc(OCCCN(CCCC)CCCC)cc1 | 10 | 20 | 33.3 | 960 | 0.02 |
| CN1[C@@H]2CC[C@H]1C[C@@H](OC(=O)c1c[nH]c3ccccc13)C2 | 6.3 | 9.7 | 26 | 336 |  |
| C1COC(NC(C2CC2)C2CC2)=N1 | 10.6 | 4.5 | 7.1 | 498 | 0.9 |
| C[N+](C)(O)CCCN1c2ccccc2CCc2ccccc21 | 2.6 | 1.9 | 12 | 108 |  |
| O=C(NC[C@H]1CN(c2ccc(N3CCOCC3=O)cc2)C(=O)O1)c1ccc(Cl)s1 | 4.9 | 0.7 | 2.4 | 420 | 0.06 |
| [H]/N=C(\N)c1cccc(CC(C(=O)OC)[C@@H](C)NC(=O)c2ccc(-c3cc[n+]([O-])cc3)cc2)c1 (stereo partly drawn) | 2.02 | 0.89 | 7.38 | 180 |  |
| CC(C)C(=O)OCC(=O)[C@]12O[C@@H](C3CCCCC3)O[C@@H]1C[C@@H]1[C@@H]3CC=C4CC(=O)C=C[C@]4(C)[C@H]3[C@@H](O)C[C@@]12C | 1.45 | 2.9 | 33.3 | 62.4 | 0.01 |

| Structure (SMILES) | MRT [h] | Vd [L/kg] | clearance [mL/min/kg] | half-life [min] | fraction unbound |
| --- | --- | --- | --- | --- | --- |
| O=C1NC(=O)C(c2cn3ccccc3n2)=C1C1=CN2CCN(C(=O)N3CCCCC3)C[C@@H]3C=C(F)C=C1[C@H]32 | 1.9 | 1.2 | 10.3 | 162 | 0.02 |
| Oc1ccc2c(c1)[C@@]13CCCC[C@@]1(O)[C@@H](C2)N(CC1CCC1)CC3 | 5.3 | 12 | 41 | 288 | 0.17 |
| OCCN1CCN(CCCN2c3ccccc3Sc3ccc(Cl)cc32)CC1 | 11 | 18 | 27 | 564 | 0.07 |
| CCC(CC)COC(C(=O)OCCN(C)C)(c1ccccc1)c1ccccc1 | 21 | 7.1 | 5.7 | 2040 |  |
| CN(C)N=Nc1nc[nH]c1C(N)=O | 7.8 | 1.2 | 2.6 | 372 | 1 |
| Cc1nc(=O)c(C#N)c(NCc2cccnc2)[nH]1 | 1.1 | 0.39 | 5.8 | 57 | 0.05 |
| C=C1C[C@@H]2CC[C@@]34C[C@H]5O[C@H]6[C@@H](O3)[C@H]3O[C@H](CC[C@@H]3O[C@H]6[C@H]5O4)CC(=O)O[C@@H]3[C@@H](OC)[C@@H](C[C@H](O)CN)O[C@H]3C[C@H]3O[C@@H](CC[C@@H]1O2)C[C@@H](C)C3=C | 32.5 | 1.46 | 0.75 | 2270 | 0.43 |
| O=C(/C=C/c1ccccc1)NCCO | 1.93 | 0.11 | 0.99 | 81 |  |
| CC[C@@]1(O)C(=O)OCc2c1cc1n(c2=O)Cc2c-1nc1cc(F)c(C)c3c1c2[C@@H](N)CC3 | 7.6 | 0.44 | 0.96 | 402 |  |
| CN(C)CC/C=C1\c2ccccc2COc2ccccc21 | 15 | 12 | 14 | 900 |  |
| CCC(C)n1ncn(-c2ccc(N3CCN(c4ccc(OCC5COC(Cn6cncn6)(c6ccc(Cl)cc6Cl)O5)cc4)CC3)cc2)c1=O (stereo not drawn) |  | 7.4 | 5.1 | 1500 |  |
| CN1CC[C@H](c2c(O)cc(O)c3c(=O)cc(-c4ccccc4Cl)oc23)[C@H](O)C1 | 4 | 1.5 | 6.1 | 312 | 0.06 |
| CN(C)C[C@H](c1ccc(O)cc1)C1(O)CCCCC1 | 11.8 | 3.5 | 4.9 | 504 | 0.7 |
| CCCn1c(=O)c2[nH]c(C34CCC(CCC(=O)O)(CC3)CC4)nc2n(CCC)c1=O | 11.7 | 0.76 | 1.08 | 960 | 0.1 |
| C/C=C(\C)C(=O)O[C@H]1[C@H](OC(C)=O)[C@]2(CO)[C@H](O)C[C@]3(C)C(=CC[C@@H]4[C@@]5(C)CC[C@H](O[C@@H]6OC(C(=O)O)[C@@H](O[C@@H]7O[C@H](CO)[C@@H](O)[C@H](O)[C@H]7O)[C@H](O)[C@H]6O[C@@H]6O[C@H](CO)[C@@H](O)[C@H](O)[C@H]6O)[C@](C)(CO)[C@@H]5CC[C@]43C)[C@@H]2CC1(C)C (stereo partly drawn) | 2.85 | 0.28 | 1.65 | 144 |  |
| CN(C)[C@@H]1C(O)=C(C(N)=O)C(=O)[C@@]2(O)C(O)=C3C(=O)c4c(O)ccc(Cl)c4[C@@](C)(O)[C@H]3C[C@@H]12 | 7.4 | 0.9 | 2 | 420 |  |
| COC(=O)C1(OC(=O)c2cncn2[C@H](C)c2ccccc2)CC1 |  |  | 50.1 | 14.4 |  |
| N#C[C@H]1CC2C[C@H]2N1C(=O)C(N)C12CC3CC(CC(O)(C3)C1)C2 (stereo partly drawn) | 4.1 | 1.8 | 7.1 | 450 | 1 |
| COCC(NC(C)=O)C(=O)NCc1ccccc1 (stereo not drawn) | 17.2 | 0.58 | 0.57 | 738 | 0.85 |
| CCN(CC)CCNc1ccc(CNC=O)c2sc3ccc(OC)cc3c(=O)c12 | 5.4 | 1.01 | 3.1 | 371 |  |
| C[C@@H]1C=C2CC(=O)CCC2[C@H]2CC[C@]3(C)[C@@H](O)CC[C@H]3[C@H]12 (stereo partly drawn) | 0.67 | 0.8 | 20 | 39 |  |
| CSCCC(N)C(=O)N[C@@]1(C(=O)O)CS(=O)(=O)[C@H]2C(C(=O)O)[C@H]21 (stereo partly drawn) | 0.75 | 0.44 | 9.73 | 50.4 |  |
| OC[C@@H](O)[C@@H](O)[C@H](O)[C@H](O)CO | 3.5 | 0.24 | 1.2 | 282 |  |

| Structure (SMILES) | MRT [h] | Vd [L/kg] | clearance [mL/min/kg] | half-life [min] | fraction unbound |
| --- | --- | --- | --- | --- | --- |
| COc1cccc2c1C(=O)c1c(O)c3c(c(O)c1C2=O)C[C@@](O)(C(=O)CO)C[C@@H]3O[C@H]1C[C@H](N)[C@H](OCc2ccccc2)[C@H](C)O1 | 43.2 | 48 | 18.5 | 2080 |  |
| NS(=O)(=O)c1cc(C(=O)O)cc(N2CCCC2)c1Oc1ccccc1 | 0.91 | 0.17 | 3.1 | 78 | 0.058 |
| CNS(=O)(=O)Cc1ccc2[nH]cc(CCCN3CCN(c4ncncc4OC)CC3)c2c1 | 2.25 | 0.87 | 6.44 | 316 |  |
| CCOc1ccc2ccccc2c1C(=O)NC1C(=O)N2C(C(=O)O)C(C)(C)S[C@H]12 (stereo partly drawn) | 1.1 | 0.22 | 3.3 | 42 | 0.13 |
| CN1CCN(CC(=O)N2c3ccccc3C(=O)Nc3cccnc32)CC1 | 10.3 | 1.71 | 2.77 | 666 |  |
| CN[C@@H]1[C@@H](O)[C@@H](O[C@@H]2[C@@H](O)[C@H](O[C@H]3OC(CN)=CC[C@H]3N)[C@@H](N)C[C@H]2N)OC[C@]1(C)O | 3.2 | 0.19 | 1 | 144 | 0.15 |
| CC1(C)CC[C@]2(C(=O)O)CC[C@]3(COC(=O)C=Cc4cc(O)ccc4NC(=O)/C=C/C(=O)O)C(=CC[C@@H]4[C@@]5(C)CCC(=O)C(C)(C)[C@@H]5CC[C@]43C)[C@@H]2C1 | 3.18 | 1.45 | 7.6 |  |  |
| O=P(O)(O)C(Sc1ccc(Cl)cc1)P(=O)(O)O | 9.5 | 0.23 | 0.4 | 462 | 0.1 |
| Nc1nc2[nH]cnc2c(=S)[nH]1 | 3.13 | 2.89 | 15.4 | 1460 |  |
| CNC(=O)N(N(CCCl)S(C)(=O)=O)S(C)(=O)=O | 0.63 | 0.88 | 23.1 | 29.4 |  |
| COc1ccsc1CNCC[C@@]1(c2ccccn2)CCOC2(CCCC2)C1 | 1.9 | 0.78 | 6.89 | 108 |  |
| Cc1ccccc1N1C(=O)c2cc(S(N)(=O)=O)c(Cl)cc2NC1C (stereo not drawn) | 19 | 1.6 | 1.4 | 1200 |  |
| CC(O)Cn1cnc2c1c(=O)n(C)c(=O)n2C (stereo not drawn) | 8.39 | 0.59 | 1.17 | 468 |  |
| C#Cc1cccc(Nc2ncnc3cc(OCCOC)c(OCCOC)cc23)c1 | 7.55 | 0.77 | 1.69 | 390 | 0.07 |
| CCCn1c(=O)[nH]c(=O)c2nc[nH]c21 | 2.6 | 0.63 | 4 | 108 | 0.55 |
| CC1(C)[C@H]2CC[C@@]3(C)C(C(=O)C=C4C5C[C@](C)(C(=O)O)CC[C@@]5(C)CC[C@@]43C)[C@]2(C)CC[C@H]1O[C@H]1OC(C(=O)O)[C@@H](O)[C@H](O)[C@H]1O[C@@H]1OC(C(=O)O)[C@@H](O)[C@H](O)[C@H]1O (stereo partly drawn) | 30.9 | 0.09 | 0.05 | 1390 |  |
| COc1ccc(C2(C#N)CCC(C(=O)O)CC2)cc1OC1CCCC1 (stereo not drawn) | 8.5 | 0.23 | 0.5 | 474 |  |
| NC(=S)NN=Cc1ncccc1N | 2.6 | 0.41 | 2.65 | 114 |  |
| NS(=O)(=O)c1ccc(S(=O)(=O)Nc2cccc3c(Cl)c[nH]c23)cc1 | 16.9 | 0.68 | 0.72 | 1220 | 0.001 |
| Cn1c(CNc2ccc(C(=N)N)cc2)nc2cc(C(=O)N(CCC(=O)O)c3ccccn3)ccc21 | 7.4 | 0.85 | 1.93 | 438 | 0.65 |
| Oc1cc2c(cc1O)[C@H](Cc1cccc3ccccc13)NCC2 | 0.12 | 1.09 | 156 | 94.8 |  |
| CC(C)[N@+]1(C)[C@H]2CC[C@H]1C[C@H](OC(=O)C(c1ccccc1)C1CCCC1)C2 (stereo partly drawn) | 2.48 | 1.25 | 8.41 | 198 |  |
